Measured values as given in BindingDB's records for PubMed 36812150 (China Pharmaceutical University, 2023).

These compounds were tested against Sucrase-isomaltase, intestinal (Rattus norvegicus, UniProt P23739) (assay: Binding affinity to sucrase in rat small intestinal brush border membrane vesicles assessed as inhibition constant using sucrose as substrate incubated for 30 mins by glucose-oxidase method).
Sucrase-isomaltase, intestinal, sequence (P23739 1-1013 limits assumed): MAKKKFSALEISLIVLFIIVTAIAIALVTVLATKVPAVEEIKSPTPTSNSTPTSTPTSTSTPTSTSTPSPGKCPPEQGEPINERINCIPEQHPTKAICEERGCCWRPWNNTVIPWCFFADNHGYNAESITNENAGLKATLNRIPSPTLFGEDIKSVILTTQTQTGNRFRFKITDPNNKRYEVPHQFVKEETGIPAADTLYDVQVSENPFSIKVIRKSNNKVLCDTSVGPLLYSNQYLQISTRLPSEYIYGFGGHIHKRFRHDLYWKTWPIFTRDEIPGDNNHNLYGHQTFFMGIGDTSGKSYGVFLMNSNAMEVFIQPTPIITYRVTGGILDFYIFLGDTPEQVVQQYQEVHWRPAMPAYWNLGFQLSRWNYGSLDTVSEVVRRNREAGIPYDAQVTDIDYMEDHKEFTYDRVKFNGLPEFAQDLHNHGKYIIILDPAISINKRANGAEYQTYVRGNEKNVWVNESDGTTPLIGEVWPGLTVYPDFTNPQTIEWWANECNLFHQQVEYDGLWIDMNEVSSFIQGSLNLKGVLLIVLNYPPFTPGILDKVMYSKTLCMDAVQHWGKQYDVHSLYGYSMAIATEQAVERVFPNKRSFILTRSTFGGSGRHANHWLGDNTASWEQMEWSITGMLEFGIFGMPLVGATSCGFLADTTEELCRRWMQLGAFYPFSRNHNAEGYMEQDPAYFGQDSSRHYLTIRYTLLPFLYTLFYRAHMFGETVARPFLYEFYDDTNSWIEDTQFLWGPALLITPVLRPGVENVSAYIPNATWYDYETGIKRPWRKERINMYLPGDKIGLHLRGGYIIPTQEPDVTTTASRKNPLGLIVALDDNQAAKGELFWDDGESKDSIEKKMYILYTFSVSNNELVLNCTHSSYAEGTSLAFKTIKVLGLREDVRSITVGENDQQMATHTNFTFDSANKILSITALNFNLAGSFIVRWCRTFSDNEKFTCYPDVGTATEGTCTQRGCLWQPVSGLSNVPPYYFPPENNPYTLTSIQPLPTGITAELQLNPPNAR
Sucrase-isomaltase, intestinal, sequence (P23739 1014-1841 limits assumed): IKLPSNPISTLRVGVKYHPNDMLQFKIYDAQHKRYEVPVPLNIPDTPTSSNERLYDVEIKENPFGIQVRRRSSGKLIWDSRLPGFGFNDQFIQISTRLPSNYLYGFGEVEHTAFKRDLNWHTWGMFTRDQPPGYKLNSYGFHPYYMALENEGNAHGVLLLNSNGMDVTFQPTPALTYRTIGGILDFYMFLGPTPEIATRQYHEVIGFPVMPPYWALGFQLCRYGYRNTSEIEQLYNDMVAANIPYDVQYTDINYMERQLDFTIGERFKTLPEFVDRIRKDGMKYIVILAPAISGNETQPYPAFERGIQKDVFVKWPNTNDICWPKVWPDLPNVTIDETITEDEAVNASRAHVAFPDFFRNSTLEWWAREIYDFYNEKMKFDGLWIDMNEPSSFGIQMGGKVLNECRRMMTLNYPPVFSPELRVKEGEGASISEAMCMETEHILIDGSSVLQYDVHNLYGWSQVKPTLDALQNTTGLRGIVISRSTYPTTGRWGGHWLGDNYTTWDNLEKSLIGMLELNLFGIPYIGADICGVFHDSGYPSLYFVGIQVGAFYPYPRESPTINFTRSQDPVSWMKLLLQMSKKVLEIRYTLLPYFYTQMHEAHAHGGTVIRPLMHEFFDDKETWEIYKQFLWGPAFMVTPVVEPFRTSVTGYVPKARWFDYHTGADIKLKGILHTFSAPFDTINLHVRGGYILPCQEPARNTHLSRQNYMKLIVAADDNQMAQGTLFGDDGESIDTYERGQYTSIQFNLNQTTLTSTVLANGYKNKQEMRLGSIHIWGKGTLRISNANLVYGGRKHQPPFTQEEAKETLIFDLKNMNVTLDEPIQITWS

Structure (SMILES)	Ki [nM]
OC[C@@H]1[C@@H](O)[C@H](O)C[S@+]1C[C@@H](O)[C@H]1OC(c2ccccc2)OC[C@H]1O (stereo not given in full)	310
OC[C@@H]1[C@@H](O)[C@H](O)C[S@+]1C[C@@H](O)[C@H]1OC(c2ccccc2F)OC[C@H]1O (stereo not given in full)	240

Compounds with a lower Ki, results first:

Ki [nM]	Structure (SMILES)
190	OC[C@@H]1[C@@H](O)[C@H](O)C[S@+]1C[C@@H](O)[C@H]1OC(c2ccccc2C(F)(F)F)OC[C@H]1O (stereo not given in full)
160	O=[N+]([O-])c1ccccc1C1OC[C@@H](O)[C@@H]([C@H](O)C[S@@+]2C[C@@H](O)[C@H](O)[C@H]2CO)O1 (stereo not given in full)
210	OC[C@@H]1[C@@H](O)[C@H](O)C[S@+]1C[C@@H](O)[C@H]1OC(c2ccccc2Cl)OC[C@H]1O (stereo not given in full)
